Measurements published in patent publication US8232293B2, “Crystalline forms of a potent HCV inhibitor” (Boehringer Ingelheim International GmbH, priority 2008, dated 2012).
≈ marks a conversion by molar mass, not a printed value. Structures can show the parent of a compound that is named as a salt. Where two headings read alike, the source gives them in different places.

How the values were obtained:
[1] = Solubility in non-aqueous excipients (excess solid, HPLC of filtrate); type: physicochemical; conditions: room temperature, rotated up to 4 days; for solubility: thermodynamic from solid; for Solubility in Ethanol: excipient Ethanol; for Solubility in Transcutol P: excipient Transcutol P
Experimental: (§1) The solubility of Compound (1), as either Type A or the sodium salt form, was investigated in various non-aqueous solvents. The solutions were prepared by addition of excess Compound (1) to 0.25 ml to 1.0 ml of excipient in amber screw cap vials with Teflon lined caps. The samples were allowed to rotate at room temperature for up to 4 days. Sampling was done by centrifuging (14,000 rpm on the Eppendorf model 5415C table top centrifuge) and filtering through a 0.45 μm PVDF filter. The filtrate was subject to HPLC analysis for determining the solubility. HPLC analysis was conducted with an Agilent 1100 using gradient or isocratic conditions. Both methods used acetonitrile/water (each with 0.1% Trifluroacetic Acid) and an ACE C-18 stationary phase with column heating maintained at 40-45° C. The wavelength of detection was set at 220 nm or 264 nm. Wet solids were collected and analyzed for form change (stability) by XRPD.

[2] = Form change (stability) study of slurried solids by XRPD; type: physicochemical; conditions: slurried in either propylene glycol or ethanol, FIG. 5
Experimental: as §1
XRPD analyses for the form change studies were conducted on a Bruker AXS X-Ray Powder Diffractometer Model D8 Discover or D8 Advance, available from Bruker AXS, Inc. of Madison, Wis., using CuKα radiation. The tube power was set to either 40 kV and 40 mA or 40 kV and 30 mA. […]

HCV infection = experiment: Human clinical trials in HCV-infected patients; type: in vivo
HCV NS3 serine protease = HCV NS3 serine protease (Hepatitis C virus genotype 1a, UniProt P27958); conditions: cited from earlier work
Chain of HCV NS3 serine protease (P27958 1658-1711): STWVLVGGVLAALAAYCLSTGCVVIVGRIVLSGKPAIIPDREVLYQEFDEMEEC
Chain of HCV NS3 serine protease (P27958 1027-1657): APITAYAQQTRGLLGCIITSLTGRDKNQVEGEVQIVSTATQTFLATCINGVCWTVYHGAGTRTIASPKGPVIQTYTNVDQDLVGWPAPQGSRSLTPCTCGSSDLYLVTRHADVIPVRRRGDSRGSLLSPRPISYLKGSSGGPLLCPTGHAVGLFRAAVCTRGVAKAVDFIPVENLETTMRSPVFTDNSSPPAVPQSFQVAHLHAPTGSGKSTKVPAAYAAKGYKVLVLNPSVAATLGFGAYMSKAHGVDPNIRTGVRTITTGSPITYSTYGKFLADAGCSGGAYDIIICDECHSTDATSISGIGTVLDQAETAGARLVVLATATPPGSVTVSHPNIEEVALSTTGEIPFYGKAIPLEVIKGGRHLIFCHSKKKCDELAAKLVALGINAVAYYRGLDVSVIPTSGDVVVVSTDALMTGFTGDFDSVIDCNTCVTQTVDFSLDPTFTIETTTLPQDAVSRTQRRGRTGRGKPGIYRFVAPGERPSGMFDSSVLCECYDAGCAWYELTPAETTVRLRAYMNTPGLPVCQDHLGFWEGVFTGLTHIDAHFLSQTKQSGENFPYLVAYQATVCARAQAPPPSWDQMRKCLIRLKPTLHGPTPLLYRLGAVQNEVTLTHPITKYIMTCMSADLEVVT

**Q.** Which solubility ([1]; Capmul MCM (non-aqueous excipient), oil or lipid, excipient Capmul MCM, read-out: Solubility in Capmul MCM) does the source give for C=C[C@@H]1C[C@]1(NC(=O)[C@@H]1C[C@@H](Oc2cc(-c3csc(NC(=O)C(C)C)n3)nc3c(Br)c(OC)ccc23)CN1C(=O)[C@@H](NC(=O)OC1CCCC1)C(C)(C)C)C(=O)O [Compound (1) Na salt] here?
**A.** Its solubility is 262.5 ± 2.6 mg/mL.

**Q.** And the solubility ([1]; Capmul PG8 (non-aqueous excipient), oil or lipid, excipient Capmul PG8, read-out: Solubility in Capmul PG8)?
**A.** Its solubility is under 169 mg/mL.

**Q.** And the solubility ([1]; Labrasol (non-aqueous excipient), oil or lipid, excipient Labrasol, read-out: Solubility in Labrasol)?
**A.** The solubility was 175 ± 11.8 mg/mL.

**Q.** And the solubility ([1]; PEG 400 (non-aqueous excipient), organic solvent or mixture, excipient PEG 400, read-out: Solubility in PEG 400)?
**A.** Its solubility is 234 ± 34 mg/mL.

**Q.** What about the solubility ([1]; Propylene Glycol (non-aqueous excipient), organic solvent or mixture, excipient Propylene Glycol, read-out: Solubility in Propylene Glycol) of the same compound?
**A.** Its solubility is over 468 mg/mL.

**Q.** What about the “Solubility in Ethanol” value [1] of the same compound?
**A.** The value was 187.0 ± 23.9 mg/mL.

**Q.** What about the “Solubility in Transcutol P” value [1] of the same compound?
**A.** Its value is 430.6 ± 14.7 mg/mL.

**Q.** What about the “Form stability (change in XRPD pattern of remaining solid)” value ([2]; listed as crystalline sodium salt form of Compound (1)) of the same compound?
**A.** Its value is “no change in the XRPD pattern”.

**Q.** And the “Effectiveness in treating HCV-infected patients” value (HCV infection)?
**A.** The value was “demonstrated effectiveness”.

**Q.** For C=C[C@@H]1C[C@]1(NC(=O)[C@@H]1C[C@@H](Oc2cc(-c3csc(NC(=O)C(C)C)n3)nc3c(Br)c(OC)ccc23)CN1C(=O)[C@@H](NC(=O)OC1CCCC1)C(C)(C)C)C(=O)O [Compound (1)], which “Inhibitory activity against HCV NS3 serine protease” value (HCV NS3 serine protease) is on record?
**A.** Its value is “selective and potent inhibitor”.

**Q.** For C=C[C@@H]1C[C@]1(NC(=O)[C@@H]1C[C@@H](Oc2cc(-c3csc(NC(=O)C(C)C)n3)nc3c(Br)c(OC)ccc23)CN1C(=O)[C@@H](NC(=O)OC1CCCC1)C(C)(C)C)C(=O)O [Type A of Compound (1)], which “Solubility in Capmul MCM” value ([1]; excipient Capmul MCM) is on record?
**A.** The value was 220.6 ± 7.4 mg/mL (≈ 254 mM).

**Q.** What about the “Solubility in Capmul PG8” value ([1]; excipient Capmul PG8) of the same compound?
**A.** Its value is 172.6 ± 8.3 mg/mL (≈ 198 mM).

**Q.** And the “Solubility in Ethanol” value [1]?
**A.** Its value is 0.9 ± 0.1 mg/mL (≈ 1.03 mM).

**Q.** And the “Solubility in Labrasol” value ([1]; excipient Labrasol)?
**A.** The value was 146.7 ± 5.1 mg/mL (≈ 169 mM).

**Q.** What about the “Solubility in PEG 400” value ([1]; excipient PEG 400) of the same compound?
**A.** The value was 136.8 ± 3.2 mg/mL (≈ 157 mM).

**Q.** What about the “Solubility in Transcutol P” value [1] of the same compound?
**A.** The value was 24.3 ± 0.3 mg/mL (≈ 27.9 mM).

**Q.** And the “Form stability (change in XRPD pattern of remaining solid)” value ([2]; listed as Type A form of Compound (1))?
**A.** The value was “clear form change”.
